Data on five compounds can be found in US6291694A, “Process and intermediates useful to produce vitamin D analogs” (Hoffman-La Roche Inc., priority 2000, dated 2001).

This series is described as follows: pKa of alcohol additive in water. It counts as physicochemical.

For `OC(c1cccc(C(O)(C(F)(F)F)C(F)(F)F)c1)(C(F)(F)F)C(F)(F)F` [Formula 16, 1,3-bis(1,1,1,3,3,3, -hexafluoro-2-hydroxypropyl)benzene], the pKa in water is listed as 8.48.
The value for `CC(O)(C(F)(F)F)C(F)(F)F` [formula 15a] was 9.51.
The value for `OC(C(F)(F)F)C(F)(F)F` [formula 15b] was 9.13; that for `OC(c1ccccc1)(C(F)(F)F)C(F)(F)F` [formula 15c, 1,1,1,3,3,3-hexafluoro-2-phenyl-2-propanol] was 8.52; that for `OC(C(F)(F)F)(C(F)(F)F)C(F)(F)F` [formula 15d, perfluoro-t-butanol] was 5.18.
